Laboratory results: ChEMBL document CHEMBL5678818, “Discovery of potent SOS1 inhibitors that block RAS activation via disruption of the RAS-SOS1 interaction” (Proc Natl Acad Sci U S A, 2019)

Key:
[1] = biological target: Cyclin-dependent kinase 2 (Homo sapiens) (UniProt P24941); test: Inhibition of CDK2 (unknown origin) assessed as residual activity at 100 nM by KINOMEscan analysis relative to control
[2] = system: Tyrosine-protein kinase ABL1 (Homo sapiens), P00519 [M351T]; test: Inhibition of phosphorylated ABL1 M351T mutant (unknown origin) assessed as residual activity at 100 nM by KINOMEscan analysis relative to control
[3] = biological target: Eukaryotic translation initiation factor 2-alpha kinase 1 (Homo sapiens) (UniProt Q9BQI3); test: Inhibition of EIF2AK1 (unknown origin) assessed as residual activity at 100 nM by KINOMEscan analysis relative to control
[4] = biological target: T1, Serine/threonine-protein kinase TNNI3K (Homo sapiens) (UniProt Q59H18); test: Inhibition of TNNI3K (unknown origin) assessed as residual activity at 100 nM by KINOMEscan analysis relative to control
T1 sequence (whole entry): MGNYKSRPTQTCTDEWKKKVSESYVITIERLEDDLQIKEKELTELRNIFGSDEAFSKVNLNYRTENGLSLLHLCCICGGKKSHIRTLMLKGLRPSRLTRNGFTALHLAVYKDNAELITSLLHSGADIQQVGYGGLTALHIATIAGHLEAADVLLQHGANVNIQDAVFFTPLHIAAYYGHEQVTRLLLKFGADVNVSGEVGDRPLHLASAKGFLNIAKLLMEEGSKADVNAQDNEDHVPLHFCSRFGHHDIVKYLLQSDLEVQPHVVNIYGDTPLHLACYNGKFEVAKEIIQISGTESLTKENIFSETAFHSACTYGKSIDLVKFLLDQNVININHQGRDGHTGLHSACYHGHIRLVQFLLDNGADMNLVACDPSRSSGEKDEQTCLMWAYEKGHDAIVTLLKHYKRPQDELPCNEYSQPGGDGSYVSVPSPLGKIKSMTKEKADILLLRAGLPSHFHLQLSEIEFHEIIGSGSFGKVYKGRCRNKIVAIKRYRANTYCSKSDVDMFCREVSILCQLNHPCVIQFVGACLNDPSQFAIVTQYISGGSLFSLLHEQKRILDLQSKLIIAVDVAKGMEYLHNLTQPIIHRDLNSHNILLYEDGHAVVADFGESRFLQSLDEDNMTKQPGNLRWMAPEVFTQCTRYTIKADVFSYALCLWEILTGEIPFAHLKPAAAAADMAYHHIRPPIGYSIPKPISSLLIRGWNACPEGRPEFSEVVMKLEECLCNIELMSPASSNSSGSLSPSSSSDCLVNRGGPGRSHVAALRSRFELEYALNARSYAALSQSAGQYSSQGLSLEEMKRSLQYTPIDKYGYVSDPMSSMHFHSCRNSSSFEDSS

[5] = biological target: Ribosomal protein S6 kinase alpha-4 (Homo sapiens) (UniProt O75676); test: Inhibition of N-terminal RPS6KA4 […] domain 1 (unknown origin) assessed as residual activity at 100 nM by KINOMEscan analysis relative to control
[6] = biological target: T2, Interleukin-1 receptor-associated kinase 4 (Homo sapiens) (UniProt Q9NWZ3); test: Inhibition of IRAK4 (unknown origin) assessed as residual activity at 100 nM by KINOMEscan analysis relative to control
T2 sequence (whole entry): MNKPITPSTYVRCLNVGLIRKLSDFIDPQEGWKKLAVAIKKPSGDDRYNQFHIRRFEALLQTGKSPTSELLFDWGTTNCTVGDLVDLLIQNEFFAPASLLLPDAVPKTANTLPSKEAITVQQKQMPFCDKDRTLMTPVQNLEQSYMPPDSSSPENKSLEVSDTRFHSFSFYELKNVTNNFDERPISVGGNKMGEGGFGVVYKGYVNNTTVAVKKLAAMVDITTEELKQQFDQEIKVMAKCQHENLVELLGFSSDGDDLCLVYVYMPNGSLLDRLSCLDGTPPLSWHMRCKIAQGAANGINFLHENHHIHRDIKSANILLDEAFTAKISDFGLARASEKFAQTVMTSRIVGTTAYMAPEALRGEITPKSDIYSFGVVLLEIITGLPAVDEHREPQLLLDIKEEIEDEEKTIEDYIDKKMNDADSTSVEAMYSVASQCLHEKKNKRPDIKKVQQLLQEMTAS

[7] = biological target: Serine/threonine-protein kinase 33 (Homo sapiens) (UniProt Q9BYT3); test: Inhibition of STK33 (unknown origin) assessed as residual activity at 100 nM by KINOMEscan analysis relative to control
[8] = biological target: Serine/threonine-protein kinase RIO2 (Homo sapiens) (UniProt Q9BVS4); test: Inhibition of RIOK2 (unknown origin) assessed as residual activity at 100 nM by KINOMEscan analysis relative to control
[9] = biological target: Ribosomal protein S6 kinase alpha-5 (Homo sapiens) (UniProt O75582); test: Inhibition of C-terminal RPS6KA5 kinetic domain 2 (unknown origin) assessed as residual activity at 100 nM by KINOMEscan analysis relative to control
Ribosomal protein S6 kinase alpha-5 (Homo sapiens), sequence (O75582 whole entry, looked up, the tested form may be a part): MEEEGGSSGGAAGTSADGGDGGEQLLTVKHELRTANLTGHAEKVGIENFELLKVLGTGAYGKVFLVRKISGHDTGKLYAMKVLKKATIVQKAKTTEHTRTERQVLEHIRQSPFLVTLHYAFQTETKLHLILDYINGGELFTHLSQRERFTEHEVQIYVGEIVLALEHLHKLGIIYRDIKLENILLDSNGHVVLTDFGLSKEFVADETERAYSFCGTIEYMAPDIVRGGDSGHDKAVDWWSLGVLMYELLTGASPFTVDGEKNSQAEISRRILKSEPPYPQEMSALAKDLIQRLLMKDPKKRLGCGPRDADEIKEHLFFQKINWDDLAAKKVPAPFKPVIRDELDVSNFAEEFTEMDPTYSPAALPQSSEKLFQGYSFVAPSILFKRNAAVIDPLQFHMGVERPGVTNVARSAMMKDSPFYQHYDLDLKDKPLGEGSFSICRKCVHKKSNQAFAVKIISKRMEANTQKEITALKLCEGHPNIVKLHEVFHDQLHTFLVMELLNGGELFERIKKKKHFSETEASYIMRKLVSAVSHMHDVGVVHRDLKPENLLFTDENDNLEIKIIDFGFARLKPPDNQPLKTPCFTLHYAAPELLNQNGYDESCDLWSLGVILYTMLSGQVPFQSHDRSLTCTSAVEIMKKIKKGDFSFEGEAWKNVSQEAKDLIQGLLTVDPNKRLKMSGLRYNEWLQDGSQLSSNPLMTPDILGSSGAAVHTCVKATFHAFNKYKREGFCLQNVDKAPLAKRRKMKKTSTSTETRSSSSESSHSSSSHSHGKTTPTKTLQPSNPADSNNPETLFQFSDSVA

Ribosomal protein S6 kinase alpha-4 (Homo sapiens), sequence (O75676 whole entry, looked up): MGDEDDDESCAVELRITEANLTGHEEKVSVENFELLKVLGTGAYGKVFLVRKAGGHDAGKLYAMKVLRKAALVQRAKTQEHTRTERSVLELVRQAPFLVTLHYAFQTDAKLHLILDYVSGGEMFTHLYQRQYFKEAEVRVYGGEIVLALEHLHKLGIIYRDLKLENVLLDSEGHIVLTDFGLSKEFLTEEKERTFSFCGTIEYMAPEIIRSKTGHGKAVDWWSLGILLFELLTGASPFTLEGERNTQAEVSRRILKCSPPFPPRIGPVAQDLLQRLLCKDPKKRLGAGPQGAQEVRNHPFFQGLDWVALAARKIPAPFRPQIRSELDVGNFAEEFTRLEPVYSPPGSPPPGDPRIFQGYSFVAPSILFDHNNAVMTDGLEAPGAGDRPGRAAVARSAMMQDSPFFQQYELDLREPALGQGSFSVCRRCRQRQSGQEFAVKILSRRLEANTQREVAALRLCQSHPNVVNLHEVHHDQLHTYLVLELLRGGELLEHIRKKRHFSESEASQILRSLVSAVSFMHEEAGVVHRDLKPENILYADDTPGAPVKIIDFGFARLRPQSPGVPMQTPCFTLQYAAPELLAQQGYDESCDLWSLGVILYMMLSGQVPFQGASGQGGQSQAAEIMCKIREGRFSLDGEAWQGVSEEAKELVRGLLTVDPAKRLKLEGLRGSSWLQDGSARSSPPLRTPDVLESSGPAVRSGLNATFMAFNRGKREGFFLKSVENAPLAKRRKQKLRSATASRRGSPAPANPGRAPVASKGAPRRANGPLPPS
Serine/threonine-protein kinase RIO2 (Homo sapiens), sequence (Q9BVS4 whole entry, looked up, the tested form may be a part): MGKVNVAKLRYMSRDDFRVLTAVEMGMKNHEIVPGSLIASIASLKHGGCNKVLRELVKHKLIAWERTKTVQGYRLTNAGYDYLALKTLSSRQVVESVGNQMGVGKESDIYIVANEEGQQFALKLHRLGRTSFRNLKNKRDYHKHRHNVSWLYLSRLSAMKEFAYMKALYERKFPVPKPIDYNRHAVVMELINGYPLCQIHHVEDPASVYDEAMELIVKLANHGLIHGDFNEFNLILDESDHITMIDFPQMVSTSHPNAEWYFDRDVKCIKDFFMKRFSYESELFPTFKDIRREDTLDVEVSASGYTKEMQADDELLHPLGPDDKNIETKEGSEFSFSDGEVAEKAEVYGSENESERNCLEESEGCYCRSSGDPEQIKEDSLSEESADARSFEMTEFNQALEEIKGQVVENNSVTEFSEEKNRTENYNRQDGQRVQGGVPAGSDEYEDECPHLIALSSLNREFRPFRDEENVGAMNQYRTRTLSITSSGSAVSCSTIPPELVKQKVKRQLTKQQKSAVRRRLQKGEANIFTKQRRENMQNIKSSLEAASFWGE
Eukaryotic translation initiation factor 2-alpha kinase 1 (Homo sapiens), sequence (Q9BQI3 whole entry): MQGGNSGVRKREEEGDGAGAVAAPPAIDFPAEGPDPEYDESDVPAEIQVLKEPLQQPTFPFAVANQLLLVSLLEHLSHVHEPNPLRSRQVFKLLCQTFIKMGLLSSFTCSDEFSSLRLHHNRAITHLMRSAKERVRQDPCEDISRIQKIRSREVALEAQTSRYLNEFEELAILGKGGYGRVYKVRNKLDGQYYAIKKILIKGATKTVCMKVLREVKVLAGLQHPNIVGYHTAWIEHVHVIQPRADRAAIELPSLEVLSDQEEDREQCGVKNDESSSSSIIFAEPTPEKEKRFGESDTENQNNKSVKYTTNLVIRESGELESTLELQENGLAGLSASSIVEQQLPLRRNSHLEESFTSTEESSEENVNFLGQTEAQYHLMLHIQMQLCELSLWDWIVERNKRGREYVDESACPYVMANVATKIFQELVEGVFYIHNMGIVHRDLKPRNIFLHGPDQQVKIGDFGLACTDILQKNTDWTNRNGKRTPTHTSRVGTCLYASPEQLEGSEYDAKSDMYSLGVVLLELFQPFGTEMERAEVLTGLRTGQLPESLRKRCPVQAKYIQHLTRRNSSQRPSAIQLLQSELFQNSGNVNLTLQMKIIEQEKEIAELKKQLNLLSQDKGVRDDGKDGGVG
Serine/threonine-protein kinase 33 (Homo sapiens), sequence (Q9BYT3 whole entry, looked up): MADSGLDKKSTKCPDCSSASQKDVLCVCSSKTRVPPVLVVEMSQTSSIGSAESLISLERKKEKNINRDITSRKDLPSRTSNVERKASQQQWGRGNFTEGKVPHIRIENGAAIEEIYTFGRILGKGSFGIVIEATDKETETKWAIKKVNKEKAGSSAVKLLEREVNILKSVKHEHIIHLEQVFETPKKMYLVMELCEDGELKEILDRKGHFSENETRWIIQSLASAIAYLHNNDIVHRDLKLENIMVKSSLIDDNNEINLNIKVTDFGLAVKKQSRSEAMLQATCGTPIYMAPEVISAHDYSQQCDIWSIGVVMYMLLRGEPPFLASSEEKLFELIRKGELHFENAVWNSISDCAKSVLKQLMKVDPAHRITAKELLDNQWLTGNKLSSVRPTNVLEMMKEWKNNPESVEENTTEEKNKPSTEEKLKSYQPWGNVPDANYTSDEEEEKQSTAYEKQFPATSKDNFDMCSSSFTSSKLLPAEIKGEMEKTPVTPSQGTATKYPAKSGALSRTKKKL

COc1cc2ncnc(N[C@H](C)c3cccc4ccccc34)c2cc1OC
Activity [1]: 100%
Activity [2]: 100%
Activity [3]: 67%
Activity [4]: 85%
Activity [5]: 100%
Activity [6]: 94%
Activity [7]: 70%
Activity [8]: 65%
Activity [9]: 52%
